Laboratory results from patent publication US20240344241A1, “PROTEINACEOUS MOLECULES AND USES THEREFOR” (THE UNIVERSITY OF QUEENSLAND, priority 2021, published 2024).
Where two headings read alike, the source gives them in different places. Bridge positions count the residues as written; N and C are the ends. Peptide text beside a SMILES is read from it.

Key:
[1] = molecular target: T1, biotinylated human β-FXIIa (Homo sapiens, UniProt P00748); experiment: Surface plasmon resonance binding to FXIIa
T1 construct: purchased Molecular Innovations
Procedure: Binding kinetics of each peptide towards biotinylated human β-FXIIa (Molecular Innovations) and non-labelled zymogen FXII (Haematologic Technologies) were determined using a Biacore T200 machine (Cytiva). For β-FXIIa binding measurements, the running buffer was HBS-EP+(10 mM HEPES, 150 mM NaCl, 3 mM EDTA and 0.05% (v/v) surfactant P20, pH 7.4). Biotinylated β-FXIIa was immobilized on a Sensor Chip CAP (Cytiva) using Biotin CAPture Reagent (Cytiva). A series of concentrations of each peptide were injected as analyte and the binding kinetics were modelled using a 1:1 binding model. Regeneration of sensor surface was performed after each measurement cycle. For FXII binding measurements, the running buffer was PBST (137 mM NaCl, 2.7 mM KCl, 10 mM Na2HPO4, 1.8 mM KH2PO4, 0.05% Tween-20). Non-labelled FXII was immobilized on a Sensor Chip CM5 (Cytiva) using Amine Coupling Kit (Cytiva), achieving a final immobilization level of 2500 RU. Each peptide was flowed through immobilized FXII at 5 μM for 60 s and allowed dissociation for 150 s.

Human β-FXIIa = molecular target: T2, Human β-FXIIa (Homo sapiens, UniProt P00748); experiment: FXIIa competitive inhibition assay, colorimetric substrate Ac-QRFR-pNA; type: biochemical
T2 construct: Human β-FXIIa was obtained from Molecular Innovations, together with human FXa, human FXIa, human α-thrombin, and human plasma kallikrein; purchased Molecular Innovations; host or cells: purified from human plasma
Procedure: The activity of acyclic and cyclic MCoFx1-5 and analogues thereof was assessed in competitive inhibition assays, as previously described in Swedberg et al. (2016) J Med Chem, 59: 7287-7292. Human β-FXIIa was obtained from Molecular Innovations, together with human FXa, human FXIa, human α-thrombin, and human plasma kallikrein. Human cationic trypsin and human plasmin were obtained from Sigma-Aldrich, and recombinant human matriptase was sourced from R&D Systems. Recombinant human urokinase (uPA) and recombinant human tissue plasminogen activator (tPA) were expressed in Expi293 cells, as previously described in Li et al. (2019) Chembiochem, 20: 46-50. FXIIa inhibition assays were performed in clear, low-binding 96-well plates using 250 μL (final volume) of assay buffer (0.1 M Tris-HCl pH 8.0, 0.1 M NaCl, 10 mM CaCl2 and 0.005% Triton X-100). Inhibitors were serially diluted and incubated with 10 nM FXIIa at room temperature to reach equilibrium. After adding 100 μM Ac-QRFR-pNA substrate (KM=162 μM), enzymatic activity was measured by monitoring release of the pNA moiety using a TECAN infinite M1000 Pro plate reader (A=405 nm, reading interval, 10 s; assay time course, 7 min). Assays were conducted in three times in duplicate. Substrate kinetic constants (Michaelis-Menten) and inhibition constants (Morrison K) were determined by non-linear regression using Prism 7 (GraphPad). Selectivity assays with off-target proteases were performed in a similar way, except that different concentrations of enzyme and substrate were used, as indicated in Table 16. For assays using a fluorescent substrate (peptide-4-methylcoumaryl-7-amide, MCA), black low-binding 96-well plates were used and activity was measured using a TECAN infinite M1000 pro plate reader (λex 360 nm, λem 460 nm, reading interval, 30 s; assay time course, 5-30 min).

bovine trypsin = molecular target: T3, bovine trypsin (Bos taurus, UniProt P00760); experiment: Surface plasmon resonance binding to trypsin
T3 sequence (P00760 24-246): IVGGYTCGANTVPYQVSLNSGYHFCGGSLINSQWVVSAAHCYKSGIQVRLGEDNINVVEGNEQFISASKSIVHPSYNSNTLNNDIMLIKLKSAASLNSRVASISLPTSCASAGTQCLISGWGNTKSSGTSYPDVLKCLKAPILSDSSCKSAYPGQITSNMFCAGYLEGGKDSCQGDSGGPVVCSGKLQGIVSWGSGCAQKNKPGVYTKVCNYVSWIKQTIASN

[2] = Table 7, FXIIa, cyclic form of the peptide, read-out: Ki (nM) Cyclic
[3] = Table 8, cyclic form, read-out: KD (nM) Trypsin Cyclic
[4] = Table 8, cyclic form, read-out: KD (nM) FXIIa Cyclic

T1 sequence (P00748 373-615 limits assumed, other chains not shown): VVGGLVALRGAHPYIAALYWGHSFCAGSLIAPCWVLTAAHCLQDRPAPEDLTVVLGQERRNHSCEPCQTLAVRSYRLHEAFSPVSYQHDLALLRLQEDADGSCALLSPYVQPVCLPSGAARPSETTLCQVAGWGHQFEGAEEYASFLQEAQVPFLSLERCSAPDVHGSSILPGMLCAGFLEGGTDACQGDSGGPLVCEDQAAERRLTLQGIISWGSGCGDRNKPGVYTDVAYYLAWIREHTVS
T2 sequence (P00748 373-615 limits assumed, other chains not shown): as above

Compound | Kd ([1]; Table 7, FXIIa, cyclic form of the peptide, read-out: KD (nM) Cyclic) | Ki (Human β-FXIIa; [2]) | Kd (bovine trypsin; [3]) | Kd [1] | Ki (Human β-FXIIa) | Kd (bovine trypsin) | Kd [1, 4]
CC[C@H](C)[C@@H]1NC(=O)CNC(=O)CNC(=O)[C@H](CC(=O)O)NC(=O)[C@H](CO)NC(=O)CNC(=O)[C@H](CO)NC(=O)CNC(=O)[C@@H]2CSSC[C@@H]3NC(=O)[C@H](CC(=O)O)NC(=O)[C@H](CO)NC(=O)[C@H](CC(=O)O)NC(=O)[C@H](CCCNC(=N)N)NC(=O)[C@H](CCCNC(=N)N)NC(=O)[C@@H]4CSSC[C@H](NC(=O)[C@H]([C@@H](C)CC)NC(=O)[C@H](CSSC[C@H](NC1=O)C(=O)N1CCC[C@H]1C(=O)N[C@@H](CCCNC(=N)N)C(=O)N[C@@H]([C@@H](C)CC)C(=O)N[C@@H](CC(C)C)C(=O)N[C@@H](C(C)C)C(=O)N[C@@H](Cc1ccc(O)cc1)C(=O)N4)NC(=O)[C@H](C)NC(=O)CNC(=O)[C@@H]1CCCN1C3=O)C(=O)N[C@@H]([C@@H](C)CC)C(=O)N[C@@H](CCCNC(=N)N)C(=O)N[C@@H](CCCNC(=N)N)C(=O)N[C@@H]([C@@H](C)O)C(=O)N[C@@H](Cc1ccc(O)cc1)C(=O)N2 [MCoFx2 cyclic] (cyclo(ACICIRRTYCGSGSDGGICPRILVYCRRDSDCPG); disulfide 2-19, 4-26, 10-32) | 10 nM | 12 ± 0.7 nM | < 0.1 nM | – | – | – | –
CC[C@H](C)[C@@H]1NC(=O)[C@@H]2CSSC[C@H](NC(=O)[C@H](CCCNC(=N)N)NC(=O)CNC(=O)CNC(=O)[C@@H](N)CC(=O)O)C(=O)N3CCC[C@H]3C(=O)N[C@@H](CCCNC(=N)N)C(=O)N[C@@H](CC(C)C)C(=O)N[C@@H](CC(C)C)C(=O)N[C@@H](CCCNC(=N)N)C(=O)N[C@@H](Cc3c[nH]c4ccccc34)C(=O)N[C@H]3CSSC[C@H](NC1=O)C(=O)N[C@@H](C)C(=O)N[C@@H](CCCNC(=N)N)C(=O)NCC(=O)NCC(=O)N[C@@H](CC(C)C)C(=O)N[C@H](C(=O)NCC(=O)N[C@@H](CO)C(=O)NCC(=O)N[C@@H](CO)C(=O)O)CSSC[C@H](NC(=O)[C@H](CC(=O)O)NC(=O)[C@H](CO)NC(=O)[C@H](CC(=O)O)NC(=O)[C@H](CCCNC(=N)N)NC(=O)[C@H](CCCNC(=N)N)NC3=O)C(=O)N1CCC[C@H]1C(=O)NCC(=O)N[C@@H](C)C(=O)N2 [MCoFx3 acyclic] (H-DGGRCPRLLRWCRRDSDCPGACICARGGLCGSGS-OH; disulfide 5-22, 12-24, 18-30) | – | – | – | 167 ± 40 nM | 525 ± 30 nM | 2.39 nM | –
CC[C@H](C)[C@@H]1NC(=O)[C@@H]2CSSC[C@@H]3NC(=O)[C@H](CCCNC(=N)N)NC(=O)CNC(=O)CNC(=O)[C@H](CC(=O)O)NC(=O)[C@H](CO)NC(=O)CNC(=O)[C@H](CO)NC(=O)CNC(=O)[C@@H]4CSSC[C@H](NC(=O)[C@H](CC(=O)O)NC(=O)[C@H](CO)NC(=O)[C@H](CC(=O)O)NC(=O)[C@H](CCCNC(=N)N)NC(=O)[C@H](CCCNC(=N)N)NC(=O)[C@H](CSSC[C@H](NC1=O)C(=O)N[C@@H](C)C(=O)N[C@@H](CCCNC(=N)N)C(=O)NCC(=O)NCC(=O)N[C@@H](CC(C)C)C(=O)N4)NC(=O)[C@H](Cc1c[nH]c4ccccc14)NC(=O)[C@H](CCCNC(=N)N)NC(=O)[C@H](CC(C)C)NC(=O)[C@H](CC(C)C)NC(=O)[C@H](CCCNC(=N)N)NC(=O)[C@@H]1CCCN1C3=O)C(=O)N1CCC[C@H]1C(=O)NCC(=O)N[C@@H](C)C(=O)N2 [MCoFx3 cyclic] (cyclo(ACICARGGLCGSGSDGGRCPRLLRWCRRDSDCPG); disulfide 2-19, 4-26, 10-32) | – | 75 ± 3 nM | 2.72 nM | – | – | – | 22.8 ± 1.6 nM
CC[C@H](C)[C@@H]1NC(=O)[C@@H]2CSSC[C@H](NC(=O)[C@@H](NC(=O)CNC(=O)CNC(=O)[C@@H](N)CC(=O)O)C(C)C)C(=O)N3CCC[C@H]3C(=O)N[C@@H](CCCNC(=N)N)C(=O)N[C@@H](C(C)C)C(=O)NCC(=O)N[C@@H](Cc3c[nH]c4ccccc34)C(=O)N[C@@H](CCCNC(=N)N)C(=O)N[C@H]3CSSC[C@H](NC1=O)C(=O)N[C@@H](Cc1ccc(O)cc1)C(=O)N1CCC[C@H]1C(=O)N[C@@H]([C@@H](C)O)C(=O)N[C@@H](CCCCN)C(=O)N[C@@H](Cc1c[nH]c4ccccc14)C(=O)N[C@H](C(=O)NCC(=O)N[C@@H](CO)C(=O)NCC(=O)N[C@@H](CO)C(=O)O)CSSC[C@H](NC(=O)[C@H](CC(=O)O)NC(=O)[C@H](CO)NC(=O)[C@H](CC(=O)O)NC(=O)[C@H](CCCNC(=N)N)NC(=O)[C@H](CCCNC(=N)N)NC3=O)C(=O)N1CCC[C@H]1C(=O)NCC(=O)N[C@@H](C)C(=O)N2 [MCoFx4 acyclic] (H-DGGVCPRVGWRCRRDSDCPGACICYPTKWCGSGS-OH; disulfide 5-22, 12-24, 18-30) | – | – | – | 73.8 ± 6.3 nM | 17 ± 0.9 nM | 15.1 nM | –
CC[C@H](C)[C@@H]1NC(=O)[C@@H]2CSSC[C@@H]3NC(=O)[C@H](C(C)C)NC(=O)CNC(=O)CNC(=O)[C@H](CC(=O)O)NC(=O)[C@H](CO)NC(=O)CNC(=O)[C@H](CO)NC(=O)CNC(=O)[C@@H]4CSSC[C@H](NC(=O)[C@H](CC(=O)O)NC(=O)[C@H](CO)NC(=O)[C@H](CC(=O)O)NC(=O)[C@H](CCCNC(=N)N)NC(=O)[C@H](CCCNC(=N)N)NC(=O)[C@H](CSSC[C@H](NC1=O)C(=O)N[C@@H](Cc1ccc(O)cc1)C(=O)N1CCC[C@H]1C(=O)N[C@@H]([C@@H](C)O)C(=O)N[C@@H](CCCCN)C(=O)N[C@@H](Cc1c[nH]c5ccccc15)C(=O)N4)NC(=O)[C@H](CCCNC(=N)N)NC(=O)[C@H](Cc1c[nH]c4ccccc14)NC(=O)CNC(=O)[C@H](C(C)C)NC(=O)[C@H](CCCNC(=N)N)NC(=O)[C@@H]1CCCN1C3=O)C(=O)N1CCC[C@H]1C(=O)NCC(=O)N[C@@H](C)C(=O)N2 [MCoFx4 cyclic] (cyclo(ACICYPTKWCGSGSDGGVCPRVGWRCRRDSDCPG); disulfide 2-19, 4-26, 10-32) | – | 5.5 ± 0.5 nM | 4.09 nM | – | – | – | 14.4 ± 1.1 nM
